{
  "source": "ChEMBL document CHEMBL1158676",
  "about": "“Aurilol, a Cytotoxic Bromotriterpene Isolated from the Sea Hare Dolabella auricularia” (J Nat Prod, 1998)",
  "test": "Cytotoxicity against human HeLaS3 cells",
  "type": "functional, cell-based",
  "details": "HeLa S3",
  "data": [
    {"smiles": "CC(C)(O)[C@H](O)CC[C@@](C)(O)[C@@H]1CC[C@](C)([C@@H]2CC[C@@H]([C@@]3(C)CC[C@@H]4OC(C)(C)[C@H](Br)CC[C@@]4(C)O3)O2)O1", "note": "[AURILOL]", "values": [
      {"measurement": "IC50", "result": 4.3, "unit": "µg/mL"}
    ]}
  ]
}
